Source: ChEMBL document CHEMBL1201862, “PubChem BioAssay data set” (2004)
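Assay format: 96-well plates, 48-hour exposure. GI50 = concentration required for 50% inhibition of growth.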 Calls of active or inactive are those of the source. No stated cut-off is given here; in the data, active = GI50 up to about 1.1 µM and inactive = higher.

Columns and labels:
Experiment in all cases: growth of human tumour cells (NCI), 48 h
[1] = tested on: 786-0
[2] = tested on: A498
[3] = tested on: A549
[4] = tested on: ACHN
[5] = tested on: CAKI-1
[6] = tested on: CCRF-CEM
[7] = tested on: COLO 205
[8] = tested on: DLD-1
[9] = tested on: DMS-114
[10] = tested on: EKVX
[11] = tested on: HCC 2998
[12] = tested on: HCT-116
[13] = tested on: HCT-15
[14] = tested on: HL-60
[15] = tested on: HOP-18
[16] = tested on: HOP-62
[17] = tested on: HOP-92
[18] = tested on: HT-29
[19] = tested on: IGROV-1
[20] = tested on: K562
[21] = tested on: KM-20L2
[22] = tested on: KM12
[23] = tested on: LOX IMVI
[24] = tested on: LXFL 529
[25] = tested on: M14
[26] = tested on: M19-MEL
[27] = tested on: MOLT-4
[28] = tested on: Malme-3M
[29] = tested on: NCI-H226
[30] = tested on: NCI-H23
[31] = tested on: NCI-H460
[32] = tested on: OVCAR-3
[33] = tested on: OVCAR-4
[34] = tested on: OVCAR-5
[35] = tested on: OVCAR-8
[36] = tested on: RPMI-8226
[37] = tested on: RXF 393
[38] = tested on: RXF 631
[39] = tested on: SF-268
[40] = tested on: SF-295
[41] = tested on: SF-539
[42] = tested on: SK-MEL-28
[43] = tested on: SK-MEL-5
[44] = tested on: SN12C
[45] = tested on: SNB-19
[46] = tested on: SNB-75
[47] = tested on: SNB-78
[48] = tested on: SR
[49] = tested on: SW-620
[50] = tested on: TK-10
[51] = tested on: UACC-257
[52] = tested on: UACC-62
[53] = tested on: UO-31
[54] = tested on: DMS-273
[55] = tested on: NCI-H522
[56] = tested on: SK-MEL-2
[57] = tested on: SK-OV-3
[58] = tested on: U-251
[59] = tested on: XF498

With `O=C(Nc1ccccc1)N1C(c2ccccc2)=N[C@@H](c2ccccc2)[C@@H]1c1ccccc1` the GI50 [1] was 17.6 µM (inactive), the GI50 [2] was 18.3 µM (inactive) and the GI50 [3] was 21.2 µM (inactive). The GI50 [4] was 15.3 µM (inactive), the GI50 [5] was 21.5 µM (inactive) and the GI50 [6] was 22.6 µM (inactive). The GI50 [7] was 14.6 µM (inactive), the GI50 [8] was 15.1 µM (inactive) and the GI50 [9] was 14.7 µM (inactive). For the same compound, the GI50 [10] was 43.7 µM (inactive), the GI50 [11] was 18.5 µM (inactive) and the GI50 [12] was 17.6 µM (inactive). The GI50 [13] was 23.8 µM, the GI50 [14] was 19 µM (inactive) and the GI50 [15] was 18.9 µM (inactive). For the same compound, the GI50 [16] was 20.6 µM (inactive), the GI50 [17] was 18.3 µM (inactive) and the GI50 [18] was 16.6 µM (inactive). For the same compound, the GI50 [19] was 22.4 µM (inactive), the GI50 [20] was 17.7 µM (inactive) and the GI50 [21] was 18.1 µM (inactive). The GI50 [22] was 18.3 µM (inactive), the GI50 [23] was 14.6 µM (inactive) and the GI50 [24] was 15.6 µM (inactive). The GI50 [25] was 14.6 µM (inactive), the GI50 [26] was 19.5 µM (inactive) and the GI50 [27] was 19.1 µM (inactive). The GI50 [28] was 17.5 µM (inactive), the GI50 [29] was 23.3 µM (inactive) and the GI50 [30] was 23.7 µM (inactive). The GI50 [31] was 31.4 µM (inactive), the GI50 [32] was 22.9 µM (inactive) and the GI50 [33] was 17.6 µM (inactive). The GI50 [34] was 19.3 µM (inactive), the GI50 [35] was 22.8 µM (inactive) and the GI50 [36] was 22.5 µM (inactive). For the same compound, the GI50 [37] was 15.2 µM (inactive), the GI50 [38] was 35.2 µM (inactive) and the GI50 [39] was 22.3 µM (inactive). The GI50 [40] was 21.9 µM (inactive), the GI50 [41] was 18.6 µM (inactive) and the GI50 [42] was 15.6 µM (inactive). The GI50 [43] was 13.6 µM (inactive), the GI50 [44] was 21.9 µM (inactive) and the GI50 [45] was 31.6 µM (inactive). For the same compound, the GI50 [46] was 22.1 µM (inactive), the GI50 [47] was 33.7 µM (inactive) and the GI50 [48] was 14.8 µM (inactive). For the same compound, the GI50 [49] was 18.8 µM (inactive), the GI50 [50] was 31.3 µM (inactive) and the GI50 [51] was 19 µM (inactive). For the same compound, the GI50 [52] was 19.9 µM (inactive) and the GI50 [53] was 16.1 µM (inactive).
`Cc1c2ccncc2c(C)c2c1[nH]c1ccc(OC(C)(C)C)cc12` was tested, and the GI50 [1] was 1.53 µM (inactive), the GI50 [2] was 12.2 µM (inactive) and the GI50 [3] was 3.15 µM (inactive). For the same compound, the GI50 [5] was 1.81 µM (inactive), the GI50 [6] was 2.07 µM (inactive) and the GI50 [7] was 1.47 µM (inactive). The GI50 [8] was 2.39 µM (inactive), the GI50 [9] was 2.02 µM (inactive) and the GI50 [54] was 1.86 µM (inactive). For the same compound, the GI50 [10] was 11.1 µM (inactive), the GI50 [11] was 1.85 µM (inactive) and the GI50 [12] was 1.67 µM (inactive). The GI50 [14] was 1.81 µM (inactive), the GI50 [16] was 2.88 µM (inactive) and the GI50 [17] was 9.82 µM (inactive). For the same compound, the GI50 [18] was 2.29 µM (inactive), the GI50 [19] was 4.7 µM (inactive) and the GI50 [20] was 2.08 µM (inactive). For the same compound, the GI50 [21] was 1.78 µM (inactive), the GI50 [23] was 2.24 µM (inactive) and the GI50 [24] was 2.23 µM (inactive). For the same compound, the GI50 [25] was 4.06 µM (inactive), the GI50 [26] was 2.14 µM (inactive) and the GI50 [27] was 1.67 µM (inactive). The GI50 [28] was 1.77 µM (inactive), the GI50 [29] was 3.17 µM (inactive) and the GI50 [30] was 5.36 µM (inactive). The GI50 [31] was 1.93 µM (inactive), the GI50 [55] was 2.44 µM (inactive) and the GI50 [32] was 1.73 µM (inactive). For the same compound, the GI50 [33] was 1.98 µM (inactive), the GI50 [34] was 11.7 µM (inactive) and the GI50 [35] was 2.51 µM (inactive). The GI50 [36] was 2.08 µM (inactive), the GI50 [38] was 2.45 µM (inactive) and the GI50 [39] was 5.12 µM (inactive). For the same compound, the GI50 [40] was 2.07 µM (inactive), the GI50 [41] was 1.57 µM (inactive) and the GI50 [42] was 1.76 µM (inactive). For the same compound, the GI50 [56] was 2.03 µM (inactive), the GI50 [43] was 2.14 µM (inactive) and the GI50 [57] was 4.42 µM (inactive). The GI50 [45] was 2.47 µM (inactive), the GI50 [46] was 1.85 µM (inactive) and the GI50 [47] was 2.41 µM (inactive). The GI50 [49] was 2.14 µM (inactive), the GI50 [50] was 4.88 µM (inactive) and the GI50 [58] was 2.82 µM (inactive). The GI50 [51] was 1.97 µM (inactive), the GI50 [52] was 2.31 µM (inactive) and the GI50 [53] was 1.91 µM (inactive). The GI50 [59] was 1.93 µM (inactive).
